Measurements: patent publication US20140349297A1, “FLUORESCENT DYES BASED ON ACRIDINE AND ACRIDINIUM DERIVATIVES” (Almac Sciences (Scotland) Limited, priority 2011, published 2014)
“And” between values parts separate entries of the source, which are not always exact repeats. Equal entries are not always repeated. Structures can show the parent of a compound that is named as a salt.

What was measured:
[1] = target: T1, recombinant Lck kinase (Homo sapiens, UniProt P06239); assay type: biochemical; conditions: Lck 3.6 mU/well, 1 μM LLD-EPEGIYGVLF substrate; read-out: ATP Km
T1 construct: purchased EnzoLifeSciences
T1 sequence (P06239 whole entry, species assumed): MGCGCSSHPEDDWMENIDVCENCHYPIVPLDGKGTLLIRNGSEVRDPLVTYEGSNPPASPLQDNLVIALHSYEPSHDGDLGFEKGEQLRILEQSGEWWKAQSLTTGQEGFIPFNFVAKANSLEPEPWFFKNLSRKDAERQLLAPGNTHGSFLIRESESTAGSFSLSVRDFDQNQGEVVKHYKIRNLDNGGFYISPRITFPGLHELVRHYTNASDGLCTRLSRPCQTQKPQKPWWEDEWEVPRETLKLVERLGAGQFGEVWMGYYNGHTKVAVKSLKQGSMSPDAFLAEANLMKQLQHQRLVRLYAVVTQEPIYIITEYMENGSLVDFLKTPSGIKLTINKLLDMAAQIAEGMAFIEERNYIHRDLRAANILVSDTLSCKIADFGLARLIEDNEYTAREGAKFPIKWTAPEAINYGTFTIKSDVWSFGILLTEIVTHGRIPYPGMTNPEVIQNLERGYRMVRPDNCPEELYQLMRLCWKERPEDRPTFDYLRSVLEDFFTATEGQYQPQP
Method: Enzyme: Lck (p56Ick) (EnzoLifeSciences, 18 U/m1), 3.6 mU/well
Enzyme (3.6 mU in 5 μl buffer A) was then added to each well. […] The average lifetime values were converted to pmol phosphopeptide from a standard curve and plots of initial rates of reaction dependent on ATP concentration were used to determine the ATP Km value by non-linear regression fitting using GraphPad Prism (see FIG. 10).

[2] = Fluorescence lifetimes of acridine derivatives by TCSPC (Table 1); assay type: physicochemical; conditions: excitation 405 nm
Method: Fluorescence lifetimes were determined by time-correlated single photon counting (TCSPC) acquisition using an Edinburgh Instruments Nanotaurus fluorescence lifetime platereader, using excitation laser 405 nm and either a 438 nm band pass, 450 nm band pass or 473 nm long pass emission filter for detection.

[3] = Fluorescence analysis of 9,10-dimethylacridin-10-ium methyl sulfate (lifetime decay); assay type: physicochemical
Method: Measurements were performed in 10 mM PBS pH 7.4, excitation wavelength 350 nm and emission wavelength 490 nm for steady state, and excitation wavelength 405 nm and emission wavelength 473 nm long pass filter for fluorescence lifetime;
Steady state measurements were performed on an Edinburgh Instruments FLS920 steady state fluorimeter, with excitation wavelength of 350 nm and emission wavelength of 490 nm. Fluorescence lifetimes were determined by time-correlated single photon counting (TCSPC) acquisition using an Edinburgh Instruments Nanotaurus fluorescence lifetime platereader, using excitation laser 405 nm and a 473 nm long pass emission filter for detection.
The fluorescence excitation and emission spectra were measured at 1 μM 9,10-dimethylacridin-10-ium methyl sulfate concentration in phosphate buffered saline (PBS) solution pH 7.4. The fluorescence excitation and emission spectra, and fluorescence lifetime decay curve are shown in FIG. 1(a) and FIG. 1(b) respectively. 9,10-Dimethylacridin-10-ium methyl sulfate has an advantageously long fluorescence lifetime of circa 25-30 ns. In addition, the magnitude of the fluorescence lifetime was maintained across the three buffer systems tested (see Table 1, entry 6).

[4] = pH stability of fluorescence lifetime; assay type: physicochemical; conditions: 1 μM in 20 mM sodium phosphate buffer
Method: 1 μM solutions of 9,10-dimethylacridin-10-ium methyl sulfate in 20 mM sodium phosphate buffer were prepared using 0.2 M monobasic sodium phosphate and 0.2 M dibasic sodium phosphate buffer mixtures, 0.1 M HCl solution was used to adust the pH to <6 and 0.1 M NaOH solution was used to adjust the pH to >8;
An important criteria of fluorescence dyes suitable for use in biochemical and cell-based assays is the advantageousness of the fluorescence lifetime being independent of pH in the physiological range 5 to 9.

[5] = Fluorescence emission profile as a function of pH; assay type: physicochemical; conditions: excitation 405 nm
Method: The fluorescence emission profile was measured as a function of pH upon excitation at 405 nm (FIG. 3).

[6] = reported, Tanaka et al. 2001; cited from earlier work

SMILES	Km [1] [µM]	Fluorescence Lifetime ([2]; 1 μM in 50 mM AcOH solution) [ns]	Fluorescence Lifetime ([2]; 1 μM in PBS) [ns]	Fluorescence Lifetime ([2]; 1 μM in water) [ns]	fluorescence lifetime (decay curve, FIG. 1b) ([3]; 10 mM PBS pH 7.4, excitation 405 nm, 473 nm long pass emission filter) [ns]	Fluorescence Lifetime ([3]; circa, maintained across the three buffer systems tested)	fluorescence lifetime as a function of pH [4]	emission maximum ([5]; solutions >pH 10)	emission maximum ([5]; solutions at pH 3 to 10)	pKa of methyl protons at the 9-position [6]
Nc1ncnc2c1ncn2[C@@H]1O[C@H](COP(=O)(O)OP(=O)(O)OP(=O)(O)O)[C@@H](O)[C@H]1O [ATP]	36.4	–	–	–	–	–	–	–	–	–
Nc1c2ccccc2nc2ccccc12 [Entry 1]	–	15.6	15.6	15.7	–	–	–	–	–	–
C[n+]1c2ccccc2c(N)c2ccccc21.[Cl-] [Entry 2]	–	16.4	16.3	16.4	–	–	–	–	–	–
c1ccc2nc3ccccc3cc2c1 [Entry 3]	–	29.4	18.8	10.5	–	–	–	–	–	–
Cc1c2ccccc2nc2ccccc12 [Entry 4]	–	29.1	11.7	29.1	–	–	–	–	–	–
C[n+]1c2ccccc2cc2ccccc21 [Entry 5]	–	32.1	31.9	14.1	–	–	–	–	–	–
Cc1c2ccccc2[n+](C)c2ccccc12 [Entry 6, 9,10-dimethylacridin-10-ium methyl sulfate]	–	29.8	26.2	30.0	26.2	25-30 ns	stable across the pH range 3 to 10	425 nm and 450 nm	460 nm and 490 nm	akin to acetic acid
